Columns and labels:
Assay type in all cases: in vivo
[1] = tested on: transplanted Oryza sativa; test: Test Example 1: effect on crop, application before weed generation in submerged conditions; settings: Application herbicide amount 320 g/ha; Seventeenth Table
Summary of the method: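 Rating, on a six-step scale from almost no effect (0) to almost completely withered (5), was made three weeks after pre-emergence treatment. Treatment was surface application to flooded pots at g/ha rates, with plants kept at 25° C. to 30° C.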

[2] = tested on: Echinochloa oryzacola Vasing.; test: Test Example 2: herbicidal activity, application during weed generation in submerged conditions; settings: Eighteenth Table; application herbicide amount 320 g/ha
Summary of the method: (§1)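 Post-emergence application under submerged conditions: water-diluted emulsion dosed onto the water surface (g/ha) when weeds reach one- to two-leaf stage. Soil flooded to 4 cm; greenhouse 25–30 °C. Herbicidal ratio graded in six classes, 0 (≤5%) to 5 (≥90%), at three weeks.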

Monochoria vaginalis = test: as above; settings: Eighteenth Table; application herbicide amount 320 g/ha
Summary of the method: as §1

Scirpus juncoides = test: as above; settings: Eighteenth Table; application herbicide amount 320 g/ha
Summary of the method: as §1

[3] = tested on: Beta vulgaris ssp. vulgaris; test: Test Example 4: effect on crop by application to foliage (diluvial soil, plastic box); settings: for f (Beta vulgaris ssp. vulgaris) effect on crop grade: foliage application, 320 g/ha; for f: effect on crop, Beta vulgaris ssp. vulgaris: application to foliage, application herbicide amount 320 g/ha
Summary of the method: (§2)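 Emulsion-formulated compound, diluted to a predetermined g/ha dose, applied by small sprayer to leaves and stems of 14-day-old seedlings grown in sterilized diluvial soil. Effect rated on 0–5 herbicidal-ratio scale three weeks on.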

Brassica campestris L. = test: as above; settings: for g (Brassica campestris L.) effect on crop grade: foliage application, 320 g/ha; for g: effect on crop, Brassica campestris L.: application to foliage, application herbicide amount 320 g/ha
Summary of the method: as §2

Triticum aestivum = test: as above; settings: for e (Triticum aestivum) effect on crop grade: foliage application, 320 g/ha; for e: effect on crop, Triticum aestivum: application to foliage, application herbicide amount 320 g/ha
Summary of the method: as §2

Zea mays = test: as above; settings: for b (Zea mays) effect on crop grade: foliage application, 320 g/ha; for c: effect on crop, Zea mays: application to foliage, application herbicide amount 320 g/ha
Summary of the method: as §2

[4] = tested on: directly sowed Oryza sativa; test: as above; settings: for d (directly sowed Oryza sativa) effect on crop grade: foliage application, 320 g/ha; for b: effect on crop, directly sowed Oryza sativa: application to foliage, application herbicide amount 320 g/ha
Summary of the method: as §2

SMILES | a: transplanted Oryza sativa (effect on crop grade) [1] | A (Echinochloa oryzicola Vasing.) herbicidal ratio grade [2] | C (Monochoria vaginalis) herbicidal ratio grade (Monochoria vaginalis) | B (Scirpus juncoides) herbicidal ratio grade (Scirpus juncoides) | f (Beta vulgaris ssp. vulgaris) effect on crop grade [3] | g (Brassica campestris L.) effect on crop grade (Brassica campestris L.) | e (Triticum aestivum) effect on crop grade (Triticum aestivum) | b (Zea mays) effect on crop grade (Zea mays) | d (directly sowed Oryza sativa) effect on crop grade [4] | f: effect on crop, Beta vulgaris ssp. vulgaris [3] | g: effect on crop, Brassica campestris L. (Brassica campestris L.) | e: effect on crop, Triticum aestivum (Triticum aestivum) | c: effect on crop, Zea mays (Zea mays) | b: effect on crop, directly sowed Oryza sativa [4]
Cn1nnnc1NC(=O)c1ccc(C(F)(F)F)n2c(CSCC(F)(F)F)nnc12 [2-030] | 3 (Herbicidal ratio of 40% or more and less than 70%) | 4 (Herbicidal ratio of 70% or more and less than 90%) | 4 (Herbicidal ratio of 70% or more and less than 90%) | 3 (Herbicidal ratio of 40% or more and less than 70%) | 5 (Herbicidal ratio of 90% or more (almost completely withered)) | 5 (Herbicidal ratio of 90% or more (almost completely withered)) | 3 (Herbicidal ratio of 40% or more and less than 70%) | 5 (Herbicidal ratio of 90% or more (almost completely withered)) | 4 (Herbicidal ratio of 70% or more and less than 90%) | – | – | – | – | –
CC(C)Sc1nnc2c(C(=O)Nc3nnnn3C)ccc(C(F)(F)F)n12 [2-025] | 5 (Herbicidal ratio of 90% or more (almost completely withered)) | 5 (Herbicidal ratio of 90% or more (almost completely withered)) | 5 (Herbicidal ratio of 90% or more (almost completely withered)) | 4 (Herbicidal ratio of 70% or more and less than 90%) | – | – | – | – | – | 5 (Herbicidal ratio of 90% or more (almost completely withered)) | 4 (Herbicidal ratio of 70% or more and less than 90%) | 3 (Herbicidal ratio of 40% or more and less than 70%) | 1 (Herbicidal ratio of 5% or more and less than 20%) | 5 (Herbicidal ratio of 90% or more (almost completely withered))
CCCc1nnc2c(C(=O)Nc3nnnn3C)ccc(C(F)(F)F)n12 [2-019] | 2 (Herbicidal ratio of 20% or more and less than 40%) | 4 (Herbicidal ratio of 70% or more and less than 90%) | 4 (Herbicidal ratio of 70% or more and less than 90%) | 3 (Herbicidal ratio of 40% or more and less than 70%) | – | – | – | – | – | 5 (Herbicidal ratio of 90% or more (almost completely withered)) | 4 (Herbicidal ratio of 70% or more and less than 90%) | 3 (Herbicidal ratio of 40% or more and less than 70%) | 0 (Herbicidal ratio of 5% or less (almost no effect)) | 4 (Herbicidal ratio of 70% or more and less than 90%)
CC(C)[S+]([O-])c1nnc2c(C(=O)Nc3nnnn3C)ccc(C(F)(F)F)n12 (stereo not drawn) [2-032] | 5 (Herbicidal ratio of 90% or more (almost completely withered)) | 5 (Herbicidal ratio of 90% or more (almost completely withered)) | 5 (Herbicidal ratio of 90% or more (almost completely withered)) | 5 (Herbicidal ratio of 90% or more (almost completely withered)) | 5 (Herbicidal ratio of 90% or more (almost completely withered)) | 5 (Herbicidal ratio of 90% or more (almost completely withered)) | 5 (Herbicidal ratio of 90% or more (almost completely withered)) | 5 (Herbicidal ratio of 90% or more (almost completely withered)) | 5 (Herbicidal ratio of 90% or more (almost completely withered)) | – | – | – | – | –

From patent publication US9708314B2, “Heterocyclic amide compound” (NISSAN CHEMICAL INDUSTRIES, LTD., priority 2013, dated 2017)
